Assay results as given in patent publication US9302985B2, “Benzyl sulfonamide derivatives as RORc modulators” (Genentech, Inc., priority 2012, dated 2016).

Target: RORc ligand binding domain (Homo sapiens (Human), UniProt P51449)
Experiment: In vitro RORc Ligand Binding Assay
Conditions: displacement of 6 nM 25-[3H]hydroxycholesterol; 0.6 ug/mL RORc receptor; 3 h at 25° C.
Experimental: In vitro RORc Ligand Binding Assay
This assay was used to determine a compound's potency in inhibiting activity of RORc by determining, Kiapp, IC50, or percent inhibition values.
On day of the assay, 100 uL of 0.05% CHAPS (in deionized H2O) was added to all wells of the GFB Unifilter plate and allowed soak for 1 h. A wash buffer of 50 mM HEPES (pH 7.4), 150 mM NaCl, and 5 mM MgCl2 was prepared to wash the filter plate. To prepare an assay buffer, BSA was added to the wash buffer to reach 0.01% and DTT was added to reach 1 mM.
The 20× compound stocks were diluted in DMSO with Assay Buffer 4-fold to reach 5× the final test concentration in 25% DMSO (10 uL compound+30 uL Assay Buffer). Solutions were mixed by aspiration several times with a pipette set on 50 uL volume. For the assay, 10 uL of 5× compound stock solutions in 25% DMSO were added to the assay plate in duplicate.
For 25-hydroxycholesterol in 25% DMSO/75% Assay Buffer; 10 uL per well was used for NSB samples. Wells for Total Binding and No Receptor sample determination contained 10 uL of 25% DMSO/75% Assay Buffer per well.
Add 20 uL to all wells to reach 6 nM final concentration in the assay.
Stock receptor solution was diluted in assay buffer to obtain 1.5 ug/mL in Assay Buffer. 20 uL was added to all wells. For No Receptor samples, 20 uL Assay Buffer was substituted for receptor solution.
Assay plates were 96-well polypropylene V-bottom plates. 10 uL of 5× compound in 25% DMSO/75% Assay Buffer was added to Test wells. 10 uL of 25% DMSO/75% Assay Buffer was added to Total Binding or No Receptor wells. 10 uL of 5 uM 25-hydroxycholesterol in 25% DMSO/75% Assay Buffer was added to NSB wells. […] 20 uL of 1.5 ug/mL RORc receptor was added to wells (or 40 uL Assay Buffer to No R wells). Following addition to the wells, the plates were incubated 3 h at 25° C.
Using a Packard Filtermate Harvester, the filter plate were washed 4 times following transfer of the incubated samples. Plates were dry-filtered completely (2 h at 50° C. or overnight at room temperature). 50 uL Microscint 0 was added to all wells and read on Topcount protocol Inverted.
Final concentrations were as follows: 50 mM HEPES buffer (pH 7.4); 150 mM NaCl; 1 mM DTT; 5 mM MgCl2; 0.01% BSA; 5% DMSO; 0.6 ug/mL RORc receptor; 6 nM 25-[^3H]hydroxycholesterol. For NSB wells, 1 uM 25-hydroxycholesterol was also present.

Chain of RORc ligand binding domain (P51449 269-508, species assumed): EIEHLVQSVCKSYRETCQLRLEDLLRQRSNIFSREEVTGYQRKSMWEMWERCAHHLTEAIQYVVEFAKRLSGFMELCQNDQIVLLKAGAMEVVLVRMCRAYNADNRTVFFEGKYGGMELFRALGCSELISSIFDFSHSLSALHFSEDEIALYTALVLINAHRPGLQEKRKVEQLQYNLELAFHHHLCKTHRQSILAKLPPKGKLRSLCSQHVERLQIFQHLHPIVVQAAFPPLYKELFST

Q: How did the IC50 turn out when CC(C)CN(c1cccc(Cl)c1)S(=O)(=O)c1ccc(Oc2ccc(S(C)(=O)=O)cc2)cc1 [Compound 5, N-(3-Chloro-phenyl)-N-isobutyl-4-(4-mehanesulfonyl-phenoxy)-benzenesulfonamide] was run?
A: Its IC50 is 138 nM.

Q: How did the IC50 turn out when CC(C)CN(Cc1ccccc1)S(=O)(=O)c1ccc(-c2ccc(C(N)=O)cc2)cc1 [Compound 7, 4′-(Benzyl-isobutyl-sulfamoyl)-biphenyl-4-carboxylic acid amide] was run?
A: The IC50 was 124 nM.

Q: With CC(C)CN(c1cccc(Cl)c1)S(=O)(=O)c1ccc(-c2ccc(S(N)(=O)=O)cc2)cc1 [Compound 14, Biphenyl-4,4′-disulfonic acid 4′-amide 4-[(3-chloro-phenyl)-isobutyl-amide]] as the molecule, how does the IC50 read?
A: Its IC50 is 103 nM.

Q: How did the IC50 turn out when CC(C)CN(c1cccc(Cl)c1)S(=O)(=O)c1ccc(-c2ccc(C(N)=O)cc2)cc1 [Compound 15, 4′-[(3-Chloro-phenyl)-isobutyl-sulfamoyl]-biphenyl-4-carboxylic acid amide] was run?
A: Its IC50 is 38 nM.

Q: Which IC50 does the source give for CC(C)CN(c1ccccc1Cl)S(=O)(=O)c1ccc(-c2ccc(C(N)=O)cc2)cc1 [Compound 16, 4′-[(2-Chloro-phenyl)-isobutyl-sulfamoyl]-biphenyl-4-carboxylic acid amide] here?
A: Its IC50 is 39 nM.
